Results reported in patent US20230357761A1, “ACTIVATORS OF TYPE III CAS PROTEINS” (THE REGENTS OF THE UNIVERSITY OF CALIFORNIA, priority 2020, published 2023).
[5mC] = 5-methylcytosine; d = 2'-deoxy (DNA); r = 2'-OH (RNA); f = 2'-fluoro

Legend:
[1] = target: T1, T. thermophilus Csm6 (TtCsm6) (Thermus thermophilus, UniProt Q53W17); test: Cas13-coupled TtCsm6 activation assay, fluorescence of cleaved polyC RNA reporter; format: biochemical; settings: for kinetics of development of fluorescent signal over time / duration and level of fluorescent signal: FIG. 2; for kinetics of development of fluorescent signal over time: 20 nM Cas13 RNP, 100 nM Csm6, 100 pM Cas13 activator [R010], 200 nM C5 reporter, 2 μM Type III accessory nuclease activator, IGI buffer, versus unmodified NCR142; for duration and level of fluorescent signal: same reaction as E1, versus unmodified NCR142, which was used at 4 times the concentration
T1 sequence (Q53W17 1-464): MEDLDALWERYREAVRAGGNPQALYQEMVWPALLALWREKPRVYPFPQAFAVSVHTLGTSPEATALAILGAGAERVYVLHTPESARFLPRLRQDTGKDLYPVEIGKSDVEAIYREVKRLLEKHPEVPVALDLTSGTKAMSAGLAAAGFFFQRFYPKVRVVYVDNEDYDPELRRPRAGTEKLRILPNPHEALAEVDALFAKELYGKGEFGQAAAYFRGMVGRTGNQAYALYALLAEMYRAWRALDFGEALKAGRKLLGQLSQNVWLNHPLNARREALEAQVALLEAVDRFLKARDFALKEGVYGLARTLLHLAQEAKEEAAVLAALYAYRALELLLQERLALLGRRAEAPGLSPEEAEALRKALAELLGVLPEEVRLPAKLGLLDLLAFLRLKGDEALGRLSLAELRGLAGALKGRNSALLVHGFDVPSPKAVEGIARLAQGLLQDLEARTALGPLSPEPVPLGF
Method: To test the impact of modifications of the Type III accessory nuclease activators, the following system was used (see FIG. 1). Cas13 ribonucleoprotein complexes (RNP) were assembled using LbuCas13 protein and guides at room temperature at a concentration of 0.5 μM Cas13 in 1× reaction buffer.
In some experiments, the 1× reaction buffer comprised 20 mM HEPES, pH 6.8, 50 mM KCl, 5 mM MgCl2, 100 μg/mL BSA, 0.01% Igepal CA, 2% glycerol (“IGI buffer”) while in other experiments, the 1× reaction buffer comprised 20 mM HEPES, pH 6.8, 50 mM KCl, 5 mM MgCl2, 5% glycerol (“Ott buffer”). Once assembled, the RNPs were diluted with 1× reaction buffer to 10× the final [RNP] in the reaction (200 nM for 20 nM final concentration). Concentrated T. thermophilus Csm6 (TtCsm6) protein was also diluted to 10× the concentration (1 μM for 100 nM final concentration) in 1× reaction buffer. The activator mix was assembled on ice, containing 20× concentration of the Cas13 activator, 20× concentration of the secondary Csm6 activator, and 10× of a polyC RNA reporter (6-FAM-CCCCC-Iowa Black®, Integrated DNA Technologies) in 1× reaction buffer. The proteins were then mixed together to make an RNP/protein master mix in 1× reaction buffer. Volumes to use were determined such that 15 μL of this master mix was added to 5 μL of the activator mix for a final volume of 20 μL for the reaction. Reactions were performed in triplicate. The RNP master mix was equilibrated at room temperature for 10-15 minutes. 15 μL of the RNP/protein master mix was then added to 5 μL of the activator master mix (pre-loaded into 384-well low-volume flat-bottom black assay plate, Corning) to start the reaction. Fluorescence of the unquenched 6-FAM group (excitation 485 nm, emission 535 or 528 nm) was monitored over 1-2 hours (one reading every 1.5 or 2 min) in a Tecan or Biotek Cytation 5 plate reader at 37° C. An increase in fluorescence correlates with dequenching of the FAM due to RNA cleavage by TtCsm6.
NCR142, NCR372, NCR373 and NCR374 were compared in the system described above. Specifically, 20 nM Cas13 RNP (assembled at a ratio of 2:1 guide to protein), 100 nM Csm6, 100 pM Cas13 activator [R010]], 200 nM C5 RNA reporter (i.e., 5′-6-FAM-CCCCC-Iowa Black-3′, Integrated DNA Technologies), 2 μM Type III accessory nuclease activator, 1×IGI buffer were used, with the experiment monitored on a Tecan Spark.
Next, several different 2′-deoxy modified Type III accessory nuclease activators were compared where the activators had 1 to 3 modifications and the modifications were in different locations (see Table 3 and FIG. 4). In these experiments, 20 nM Cas13 RNPs using a guide, GJK073, targeting a short synthetic RNA target, GJK075, was used (see Table 2). In addition, 100 nM Csm6 was used, plus 0 to 200 pM Cas13 activator (GJK075), 2 μM Csm6 activator, 200 nM C5 reporter, and Cas13 1× buffer (IGI). The experiments were carried out at 37° C. in low volume flat-bottom black plates and fluorescence was measured on a Biotek Cytation 5.
The NCR497 activator was also tested over a range of Type III accessory nuclease activator concentrations and Type VI nuclease activator concentrations. In these experiments, 20 nM Cas13 RNPs comprising the NCR316 guide at a ratio of 2:1 protein to guide were used. In addition, 100 nM TtCsm6 and 200 nM C5 reporter was used where the reaction was carried out in low-volume, flat-bottom plates at 37° C. analyzed on a Biotek citation 5. Type VI nuclease activator (aNCR316) was used at 2 pM or 200 pM concentrations.
A Type III accessory nuclease activator comprising a single 2′-fluoro modified nucleotide was also modified to create an activator with a single cleavage location for the Cas13 trans nuclease activity. In this Type III accessory nuclease activator, the poly U stretch was replaced with a single U nucleotide followed by C nucleotides. […]

[2] = target: T2, Csm6 (Thermus thermophilus, UniProt Q53W17); test: Sensitivity of Cas13 RNA detection with and without Csm6 and its Type III accessory nuclease activator; format: biochemical, T. thermophilus; settings: 37° C.
T2 sequence (Q53W17 1-464): T1 sequence (Q53W17 1-464)
Method: In some experiments, the 1× reaction buffer comprised 20 mM HEPES, pH 6.8, 50 mM KCl, 5 mM MgCl2, 100 μg/mL BSA, 0.01% Igepal CA, 2% glycerol (“IGI buffer”) while in other experiments, the 1× reaction buffer comprised 20 mM HEPES, pH 6.8, 50 mM KCl, 5 mM MgCl2, 5% glycerol (“Ott buffer”). Once assembled, the RNPs were diluted with 1× reaction buffer to 10× the final [RNP] in the reaction (200 nM for 20 nM final concentration). Concentrated T. thermophilus Csm6 (TtCsm6) protein was also diluted to 10× the concentration (1 μM for 100 nM final concentration) in 1× reaction buffer. The activator mix was assembled on ice, containing 20× concentration of the Cas13 activator, 20× concentration of the secondary Csm6 activator, and 10× of a polyC RNA reporter (6-FAM-CCCCC-Iowa Black®, Integrated DNA Technologies) in 1× reaction buffer. The proteins were then mixed together to make an RNP/protein master mix in 1× reaction buffer. Volumes to use were determined such that 15 μL of this master mix was added to 5 μL of the activator mix for a final volume of 20 μL for the reaction. […] Fluorescence of the unquenched 6-FAM group (excitation 485 nm, emission 535 or 528 nm) was monitored over 1-2 hours (one reading every 1.5 or 2 min) in a Tecan or Biotek Cytation 5 plate reader at 37° C. An increase in fluorescence correlates with dequenching of the FAM due to RNA cleavage by TtCsm6. […]

AAdAAUUUUUU (AAAAUUUUUU; sugars from the 5' end r2 d1 r7, backbone not given here) [NCR654]
kinetics and signal, 2′-deoxy modified activators ([1]; FIG. 4, guide GJK073, 0 to 200 pM Cas13 activator GJK075, 2 μM Csm6 activator, 37° C., versus unmodified activators): rapid kinetics and were able to achieve a high and stable signal

fAfAfAAUUUUUU (AAAAUUUUUU; sugars from the 5' end f3 r7, backbone not given here) [NCR374]
kinetics of development of fluorescent signal over time [1]: slower kinetics than the unmodified Type III accessory nuclease activator
duration and level of fluorescent signal [1]: longer lived and reached higher levels than the unmodified activator

AfAAAUCC (metdC) (metdc) C (AAAAUCCCCC; sugars from the 5' end r1 f1 r5 d2 r1, [5mC] at 8, 9, backbone not given here) [NCR690]
activity of the system ([1]; FIGS. 8 and 9, activator at 2, 0.2 and 0.1 μM, Cas13 activator at 200 or 2 pM): robust activity
background signal ([1]; FIGS. 8 and 9, compared to NCR497 at the same concentrations): higher background signal compared to the NCR497

AfAAAUUUUUU (AAAAUUUUUU; sugars from the 5' end r1 f1 r8, backbone not given here) [NCR497]
kinetics, 2′-fluoro modified activators ([1]; FIG. 5): rapid and stable kinetics
background signal (0 pM Cas13 activator curves) ([1]; FIG. 5, compared to the 2′-deoxy modified activators): decreased background signal
signal in the reaction ([1]; FIGS. 6 and 7, guide NCR316, 2 pM Type VI nuclease activator aNCR316, versus NCR142 at 2 pM or 200 pM): better signal
limit of detection of the Cas13 activator ([2]; 50 nM Cas13 RNP (guides NCR604 and NCR612), 100 nM Csm6, 2 μM NCR497, gblock7 transcript 0-20 pM, Ott buffer): approximately 2 fM
increase in sensitivity when Csm6 reagents were added to the Cas13 detection system ([2]; FIG. 10, 200 nM Cas13 RNP (guide NCR316) alone vs plus 100 nM Csm6 and 2 μM NCR497, aNCR316 200 aM to 200 pM, IGI buffer): 100 fold

dAdAdAAUUUUUU (AAAAUUUUUU; sugars from the 5' end d3 r7, backbone not given here) [NCR373]
kinetics of development of fluorescent signal over time [1]: slower kinetics than the unmodified Type III accessory nuclease activator
duration and level of fluorescent signal [1]: longer lived and reached higher levels than the unmodified activator
